Measurements reported in patent US20070128217A1 (priority 2003, published 2007).

Experiments:
[1] = test system: antibodies in sera from SARS patients (sera 1a, 1b, 2, 6, 37, 62, London, SARS-yellow, SARS-green); format: binding, human; parameters: Binding of serum 6 to linear peptides of protein X1 of SARS-CoV Urbani / Binding of serum 37 to linear peptides of protein X1 of SARS-CoV Urbani / Binding of serum 6 to looped/cyclic peptide (PEPSCAN-ELISA) / Binding of serum 37 to looped/cyclic peptide (PEPSCAN-ELISA) / Binding of serum 37 to looped/cyclic peptides of protein X1 of SARS-CoV Urbani / Binding of serum 6 to linear peptides of protein X2 / Binding of serum 37 to linear peptides of protein X2 / Binding of serum 37 to looped/cyclic peptides of protein X2 of SARS-CoV Urbani / Binding of serum 6 to linear peptides of protein M of SARS-CoV Urbani / Binding of serum 37 to linear peptides of protein M of SARS-CoV Urbani / Binding of serum 6 to looped/cyclic peptides of protein M of SARS-CoV Urbani / Binding of serum 37 to looped/cyclic peptides of protein M of SARS-CoV Urbani / Binding of serum 6 to linear peptides of protein X3 of SARS-CoV Urbani / Binding of serum 37 to linear peptides of protein X3 of SARS-CoV Urbani / Binding of serum 37 to looped/cyclic peptides of protein X3 of SARS-CoV Urbani / Binding of serum 6 to linear peptides of protein X4 of SARS-CoV Urbani / Binding of serum 37 to linear peptides of protein X4 of SARS-CoV Urbani / Binding of serum 37 to looped/cyclic peptides of protein X4 of SARS-CoV Urbani / Binding of serum 6 to linear peptides of protein X5 of SARS-CoV Urbani / Binding of serum 37 to linear peptides of protein X5 of SARS-CoV Urbani / Binding of serum 37 to looped/cyclic peptides of protein X5 of SARS-CoV Urbani / Binding of serum 6 to linear peptides of protein N of SARS-CoV Urbani / Binding of serum 37 to linear peptides of protein N of SARS-CoV Urbani / Binding of serum 6 to linear peptide (PEPSCAN-ELISA) / Binding of serum 1a to looped/cyclic peptides of protein N of SARS-CoV Urbani / Binding of serum 1b to looped/cyclic peptides of protein N of SARS-CoV Urbani / Binding of serum 2 to looped/cyclic peptides of protein N of SARS-CoV Urbani / Binding of serum 6 to looped/cyclic peptides of protein N of SARS-CoV Urbani / Binding of serum 37 to looped/cyclic peptides of protein N of SARS-CoV Urbani / Binding of serum 62 to looped/cyclic peptides of protein N of SARS-CoV Urbani / Binding of serum London to looped/cyclic peptides of protein N of SARS-CoV Urbani / Binding of serum SARS-green to looped/cyclic peptides of protein N of SARS-CoV Urbani: unit not given here
[2] = test system: control sera (pooled serum of ten healthy LUMC hospital workers; commercial negative donor pooled serum from the Dutch bloodbank); format: binding, human; parameters: Binding of Control serum LUMC to linear peptides / Binding of Control serum Blood-bank to linear peptides / Binding of Control serum LUMC to looped peptides / Binding of Control Serum Blood-Bank to Looped peptides / Binding of Control serum LUMC to linear peptides of the protein M of SARS-CoV Urbani / Binding of Control serum Blood-bank to linear peptides of the protein M of SARS-CoV Urbani / Binding of Control serum LUMC to looped peptides of the protein M of SARS-CoV Urbani / Binding of Control Serum Blood-Bank to Looped peptides of the protein M of SARS-CoV Urbani: unit not given here
[3] = test system: rabbit serum obtained by immunizing a rabbit with the SARS-CoV strain Frankfurt 1; format: binding; parameters: Binding of a rabbit serum to linear peptides / Binding of a rabbit serum to looped peptides / Rabbit serum linear peptides / Rabbit serum looped peptides / Binding of a rabbit serum to linear peptides of protein N of SARS-CoV Urbani (Rabbit serum linear peptides) / Binding of a rabbit serum to looped/cyclic peptides of protein N of SARS-CoV Urbani (Rabbit serum looped peptides): unit not given here

PYNSVTDTIVVTEGD
0.1: Binding of serum 6 to looped/cyclic peptides of protein X1 of SARS-CoV Urbani [1] | Binding of a rabbit serum to linear peptides [3]
0.4: Binding of serum 1a to looped/cyclic peptides of protein X1 of SARS-CoV Urbani [1] | Binding of serum 1b to linear peptides of protein X1 of SARS-CoV Urbani [1] | Binding of serum 2 to linear peptides of protein X1 of SARS-CoV Urbani [1] | Binding of serum 6 to linear peptides of protein X1 of SARS-CoV Urbani [1] | Binding of serum 62 to linear peptides of protein X1 of SARS-CoV Urbani [1] | Binding of serum SARS-yellow to looped/cyclic peptides of protein X1 of SARS-CoV Urbani [1] | Binding of Control Serum Blood-Bank to Looped peptides [2] | Binding of Control serum Blood-bank to linear peptides [2] | Binding of Control serum LUMC to looped peptides [2]
0.3: Binding of serum 1b to looped/cyclic peptides of protein X1 of SARS-CoV Urbani [1] | Binding of serum 2 to looped/cyclic peptides of protein X1 of SARS-CoV Urbani [1] | Binding of serum 37 to looped/cyclic peptides of protein X1 of SARS-CoV Urbani [1] | Binding of serum 62 to looped/cyclic peptides of protein X1 of SARS-CoV Urbani [1] | Binding of serum SARS-yellow to linear peptides of protein X1 of SARS-CoV Urbani [1] | Binding of Control serum LUMC to linear peptides [2] | Binding of a rabbit serum to looped peptides [3]
0.2: Binding of serum London to linear peptides of protein X1 of SARS-CoV Urbani [1] | Binding of serum London to looped/cyclic peptides of protein X1 of SARS-CoV Urbani [1] | Binding of serum SARS-green to linear peptides of protein X1 of SARS-CoV Urbani [1]
0.5: Binding of serum 1a to linear peptides of protein X1 of SARS-CoV Urbani [1] | Binding of serum 37 to linear peptides of protein X1 of SARS-CoV Urbani [1] | Binding of serum SARS-green to looped/cyclic peptides of protein X1 of SARS-CoV Urbani [1]

QASLPFGWLVIGVAF
0.3: Binding of serum 1b to looped/cyclic peptide (PEPSCAN-ELISA) [1] | Binding of serum 6 to looped/cyclic peptide (PEPSCAN-ELISA) [1] | Binding of a rabbit serum to linear peptides [3]
0.6: Binding of serum 1b to linear peptides of protein X1 of SARS-CoV Urbani [1] | Binding of serum 2 to linear peptides of protein X1 of SARS-CoV Urbani [1] | Binding of serum 37 to linear peptides of protein X1 of SARS-CoV Urbani [1] | Binding of serum 62 to linear peptides of protein X1 of SARS-CoV Urbani [1] | Binding of Control serum LUMC to linear peptides [2]
0.1: Binding of serum SARS-green to linear peptides of protein X1 of SARS-CoV Urbani [1]
0.7: Binding of serum 1a to linear peptides of protein X1 of SARS-CoV Urbani [1] | Binding of Control serum Blood-bank to linear peptides [2]
0.5: Binding of serum SARS-yellow to linear peptides of protein X1 of SARS-CoV Urbani [1]
0.4: Binding of serum 1a to looped/cyclic peptide (PEPSCAN-ELISA) [1] | Binding of serum 6 to linear peptides of protein X1 of SARS-CoV Urbani [1] | Binding of serum 37 to looped/cyclic peptide (PEPSCAN-ELISA) [1] | Binding of serum 62 to looped/cyclic peptide (PEPSCAN-ELISA) [1] | Binding of Control Serum Blood-Bank to Looped peptides [2] | Binding of Control serum LUMC to looped peptides [2] | Binding of a rabbit serum to looped peptides [3]
0.2: Binding of serum 2 to looped/cyclic peptide (PEPSCAN-ELISA) [1] | Binding of serum London to linear peptides of protein X1 of SARS-CoV Urbani [1] | Binding of serum London to looped/cyclic peptide (PEPSCAN-ELISA) [1] | Binding of serum SARS-green to looped/cyclic peptide (PEPSCAN-ELISA) [1] | Binding of serum SARS-yellow to looped/cyclic peptide (PEPSCAN-ELISA) [1]

QEEVQQELYSPLFLI
0.8: Binding of serum 1a to linear peptides of protein X4 of SARS-CoV Urbani [1] | Binding of serum 37 to linear peptides of protein X4 of SARS-CoV Urbani [1] | Binding of serum 62 to linear peptides of protein X4 of SARS-CoV Urbani [1] | Binding of serum London to linear peptides of protein X4 of SARS-CoV Urbani [1] | Binding of serum SARS-yellow to linear peptides of protein X4 of SARS-CoV Urbani [1] | Binding of Control serum Blood-bank to linear peptides [2] | Binding of Control serum LUMC to linear peptides [2] | Binding of Control serum LUMC to looped peptides [2]
1.0: Binding of serum SARS-green to linear peptides of protein X4 of SARS-CoV Urbani [1]
0.6: Binding of serum 2 to linear peptides of protein X4 of SARS-CoV Urbani [1] | Binding of serum 6 to linear peptides of protein X4 of SARS-CoV Urbani [1]
0.4: Rabbit serum linear peptides [3] | Rabbit serum looped peptides [3]
0.9: Binding of serum 1b to linear peptides of protein X4 of SARS-CoV Urbani [1]
recognized in looped/cyclic form: Recognition of the peptide by sera of SARS-CoV infected individuals, and form (linear, looped/cyclic) in which it is recognized [1]
0.7: Binding of Control Serum Blood-Bank to Looped peptides [2]

QELLIQQWIQFMMSR
0.6: Binding of serum 2 to looped/cyclic peptides of protein X2 of SARS-CoV Urbani [1] | Binding of serum 6 to looped/cyclic peptides of protein X2 of SARS-CoV Urbani [1] | Binding of serum SARS-green to linear peptides of protein X2 [1] | Binding of serum SARS-yellow to linear peptides of protein X2 [1]
0.4: Binding of serum 1b to linear peptides of protein X2 [1] | Binding of serum 2 to linear peptides of protein X2 [1] | Binding of serum London to linear peptides of protein X2 [1] | Binding of a rabbit serum to looped peptides [3]
0.3: Binding of serum 6 to linear peptides of protein X2 [1] | Binding of serum SARS-green to looped/cyclic peptides of protein X2 of SARS-CoV Urbani [1] | Binding of Control serum LUMC to linear peptides [2] | Binding of a rabbit serum to linear peptides [3]
1.2: Binding of serum London to looped/cyclic peptides of protein X2 of SARS-CoV Urbani [1]
0.5: Binding of serum 1a to looped/cyclic peptides of protein X2 of SARS-CoV Urbani [1] | Binding of serum 1b to looped/cyclic peptides of protein X2 of SARS-CoV Urbani [1] | Binding of serum 37 to linear peptides of protein X2 [1] | Binding of serum 37 to looped/cyclic peptides of protein X2 of SARS-CoV Urbani [1] | Binding of serum 62 to linear peptides of protein X2 [1] | Binding of serum SARS-yellow to looped/cyclic peptides of protein X2 of SARS-CoV Urbani [1] | Binding of Control serum Blood-bank to linear peptides [2] | Binding of Control serum LUMC to looped peptides [2]
0.7: Binding of serum 1a to linear peptides of protein X2 [1] | Binding of serum 62 to looped/cyclic peptides of protein X2 of SARS-CoV Urbani [1] | Binding of Control Serum Blood-Bank to Looped peptides [2]

QELYSPLFLIVAALV
0.6: Binding of serum 1a to looped/cyclic peptides of protein X4 of SARS-CoV Urbani [1] | Binding of serum 2 to looped/cyclic peptides of protein X4 of SARS-CoV Urbani [1] | Binding of serum 6 to linear peptides of protein X4 of SARS-CoV Urbani [1] | Binding of serum 37 to looped/cyclic peptides of protein X4 of SARS-CoV Urbani [1] | Binding of serum 62 to looped/cyclic peptides of protein X4 of SARS-CoV Urbani [1] | Binding of serum SARS-green to looped/cyclic peptides of protein X4 of SARS-CoV Urbani [1] | Binding of Control serum Blood-bank to linear peptides [2] | Binding of Control serum LUMC to linear peptides [2]
0.5: Binding of serum 1b to linear peptides of protein X4 of SARS-CoV Urbani [1] | Binding of serum SARS-green to linear peptides of protein X4 of SARS-CoV Urbani [1] | Binding of serum SARS-yellow to looped/cyclic peptides of protein X4 of SARS-CoV Urbani [1] | Rabbit serum looped peptides [3]
0.7: Binding of serum 1a to linear peptides of protein X4 of SARS-CoV Urbani [1] | Binding of serum 37 to linear peptides of protein X4 of SARS-CoV Urbani [1] | Binding of serum 62 to linear peptides of protein X4 of SARS-CoV Urbani [1] | Binding of serum London to linear peptides of protein X4 of SARS-CoV Urbani [1] | Binding of Control Serum Blood-Bank to Looped peptides [2] | Binding of Control serum LUMC to looped peptides [2]
0.8: Binding of serum 2 to linear peptides of protein X4 of SARS-CoV Urbani [1]
0.2: Binding of serum SARS-yellow to linear peptides of protein X4 of SARS-CoV Urbani [1]
0.4: Binding of serum 1b to looped/cyclic peptides of protein X4 of SARS-CoV Urbani [1] | Rabbit serum linear peptides [3]
0.3: Binding of serum 6 to looped/cyclic peptides of protein X4 of SARS-CoV Urbani [1] | Binding of serum London to looped/cyclic peptides of protein X4 of SARS-CoV Urbani [1]

QFAYSNRNRFLYIIK
0.4: Binding of serum 37 to linear peptides of protein M of SARS-CoV Urbani [1] | Binding of serum London to linear peptides of protein M of SARS-CoV Urbani [1] | Rabbit serum linear peptides [3]
0.8: Binding of Control serum LUMC to linear peptides of the protein M of SARS-CoV Urbani [2] | Binding of Control serum LUMC to looped peptides of the protein M of SARS-CoV Urbani [2]
0.7: Binding of serum 1a to linear peptides of protein M of SARS-CoV Urbani [1]
0.5: Binding of serum 2 to linear peptides of protein M of SARS-CoV Urbani [1] | Binding of serum SARS-green to linear peptides of protein M of SARS-CoV Urbani [1]
1.2: Rabbit serum looped peptides [3]
0.6: Binding of serum 1b to linear peptides of protein M of SARS-CoV Urbani [1] | Binding of Control Serum Blood-Bank to Looped peptides of the protein M of SARS-CoV Urbani [2] | Binding of Control serum Blood-bank to linear peptides of the protein M of SARS-CoV Urbani [2]
0.3: Binding of serum SARS-yellow to linear peptides of protein M of SARS-CoV Urbani [1]
0.9: Binding of serum 62 to linear peptides of protein M of SARS-CoV Urbani [1]
recognized in looped/cyclic form: Recognition of the peptide by sera of SARS-CoV infected individuals, and form (linear, looped/cyclic) in which it is recognized [1]
